According to ChEMBL document CHEMBL1909046, “DrugMatrix in vitro pharmacology data”:

Experiments:
[1] = target: T1, Alpha-2A adrenergic receptor (Homo sapiens, UniProt P08913); type: cell membranes, Sf9, Membrane; note: in other assays of this panel Not Active means under 50% inhibition at 10 µM
T1 sequence (P08913 whole entry): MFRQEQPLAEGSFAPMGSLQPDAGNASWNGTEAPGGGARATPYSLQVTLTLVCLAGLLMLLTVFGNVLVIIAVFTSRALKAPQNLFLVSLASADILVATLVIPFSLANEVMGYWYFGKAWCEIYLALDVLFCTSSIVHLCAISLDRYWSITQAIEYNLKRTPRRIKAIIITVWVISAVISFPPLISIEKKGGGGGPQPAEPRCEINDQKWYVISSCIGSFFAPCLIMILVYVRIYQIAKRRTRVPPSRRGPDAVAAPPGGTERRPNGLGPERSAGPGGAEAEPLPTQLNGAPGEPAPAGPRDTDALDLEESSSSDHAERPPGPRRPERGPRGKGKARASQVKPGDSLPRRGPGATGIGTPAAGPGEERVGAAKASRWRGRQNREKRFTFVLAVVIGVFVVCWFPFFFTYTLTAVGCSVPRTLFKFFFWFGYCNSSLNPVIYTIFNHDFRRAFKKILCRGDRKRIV

[2] = target: T2, Amine oxidase [flavin-containing] A (Homo sapiens, UniProt P21397); experiment: DRUGMATRIX: Monoamine Oxidase MAO-A enzyme inhibition (substrate: Kynuramine); parameters: species or system BTI-TN-5B1-4; settings: bti-tn-5b1-4; Not Active = under 50% inhibition at 10 µM
T2 sequence (P21397 whole entry): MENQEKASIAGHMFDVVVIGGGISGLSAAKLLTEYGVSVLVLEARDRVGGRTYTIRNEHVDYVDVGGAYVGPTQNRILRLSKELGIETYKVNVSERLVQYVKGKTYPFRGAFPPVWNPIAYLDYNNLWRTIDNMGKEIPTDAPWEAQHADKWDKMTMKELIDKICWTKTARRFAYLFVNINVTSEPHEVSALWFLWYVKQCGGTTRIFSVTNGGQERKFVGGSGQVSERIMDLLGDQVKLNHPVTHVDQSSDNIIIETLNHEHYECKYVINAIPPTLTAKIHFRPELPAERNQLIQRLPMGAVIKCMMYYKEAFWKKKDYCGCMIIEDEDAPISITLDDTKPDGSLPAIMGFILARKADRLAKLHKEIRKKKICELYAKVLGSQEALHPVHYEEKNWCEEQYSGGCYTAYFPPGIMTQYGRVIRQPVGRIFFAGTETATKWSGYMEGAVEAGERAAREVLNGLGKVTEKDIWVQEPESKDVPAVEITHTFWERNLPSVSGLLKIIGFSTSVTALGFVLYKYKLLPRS

Acetylcholinesterase = Acetylcholinesterase (Homo sapiens, UniProt P22303); experiment: DRUGMATRIX: Acetylcholinesterase enzyme inhibition (substrate: acetylthiocholine); type: cell-based, HEK293; settings: hek293; Not Active = under 50% inhibition at 10 µM
[3] = target: T3, 3-hydroxy-3-methylglutaryl-coenzyme A reductase (Homo sapiens, UniProt P04035); parameters: species or system Escherichia coli;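 note: enzyme inhibition assay of HMG-CoA reductase using radiolabeled [14C]HMG-CoA as substrate; in other assays of this panel Not Active means under 50% inhibition at 10 µM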
T3 sequence (P04035 whole entry): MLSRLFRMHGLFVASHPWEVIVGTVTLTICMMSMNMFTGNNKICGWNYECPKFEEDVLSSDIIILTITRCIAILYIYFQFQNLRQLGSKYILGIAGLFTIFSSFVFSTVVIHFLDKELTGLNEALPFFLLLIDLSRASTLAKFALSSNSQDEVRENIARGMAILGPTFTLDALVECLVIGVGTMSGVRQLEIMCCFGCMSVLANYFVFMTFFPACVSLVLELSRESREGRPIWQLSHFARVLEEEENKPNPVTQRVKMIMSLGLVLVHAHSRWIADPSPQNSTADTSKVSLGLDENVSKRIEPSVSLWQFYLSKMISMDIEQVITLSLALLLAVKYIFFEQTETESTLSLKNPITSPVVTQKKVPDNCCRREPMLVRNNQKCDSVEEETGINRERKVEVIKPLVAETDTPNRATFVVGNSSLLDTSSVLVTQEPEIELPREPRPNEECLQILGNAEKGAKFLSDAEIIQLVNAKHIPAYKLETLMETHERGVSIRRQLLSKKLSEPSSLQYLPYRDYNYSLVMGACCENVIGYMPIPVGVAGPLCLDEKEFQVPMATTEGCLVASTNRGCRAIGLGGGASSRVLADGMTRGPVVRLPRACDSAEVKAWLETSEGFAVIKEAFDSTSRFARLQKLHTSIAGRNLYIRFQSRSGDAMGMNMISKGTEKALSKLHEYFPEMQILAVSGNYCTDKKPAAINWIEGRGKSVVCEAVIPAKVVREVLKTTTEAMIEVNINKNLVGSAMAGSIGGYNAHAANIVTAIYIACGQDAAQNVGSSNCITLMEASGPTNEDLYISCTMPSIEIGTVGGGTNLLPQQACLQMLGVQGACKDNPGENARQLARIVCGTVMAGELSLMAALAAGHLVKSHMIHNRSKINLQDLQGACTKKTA

Cytochrome P450 2A6 = target: T4, Cytochrome P450 2A6 (Homo sapiens, UniProt P11509); settings: bti-tn-5b1-4; note: in other assays of this panel Not Active means under 50% inhibition at 10 µM
T4 sequence (P11509 whole entry): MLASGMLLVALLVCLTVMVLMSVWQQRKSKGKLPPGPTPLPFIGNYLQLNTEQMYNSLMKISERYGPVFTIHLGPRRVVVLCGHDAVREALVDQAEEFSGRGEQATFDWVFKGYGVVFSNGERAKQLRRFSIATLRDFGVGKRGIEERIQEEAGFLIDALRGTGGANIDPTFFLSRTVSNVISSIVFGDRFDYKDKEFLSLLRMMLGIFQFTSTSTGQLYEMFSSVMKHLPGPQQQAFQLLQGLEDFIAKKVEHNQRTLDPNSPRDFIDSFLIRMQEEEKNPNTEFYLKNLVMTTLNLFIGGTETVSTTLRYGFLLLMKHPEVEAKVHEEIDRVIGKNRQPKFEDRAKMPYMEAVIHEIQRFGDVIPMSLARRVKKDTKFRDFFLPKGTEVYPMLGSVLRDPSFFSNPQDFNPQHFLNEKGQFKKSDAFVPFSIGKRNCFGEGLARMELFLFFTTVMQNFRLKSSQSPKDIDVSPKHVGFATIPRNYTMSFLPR

Histamine H2 receptor = Histamine H2 receptor (Homo sapiens, UniProt P25021); type: cell membranes, CHO-K1, Membrane; settings: cho-k1; note: in other assays of this panel Not Active means under 50% inhibition at 10 µM
Chain of Histamine H2 receptor (P25021 whole entry): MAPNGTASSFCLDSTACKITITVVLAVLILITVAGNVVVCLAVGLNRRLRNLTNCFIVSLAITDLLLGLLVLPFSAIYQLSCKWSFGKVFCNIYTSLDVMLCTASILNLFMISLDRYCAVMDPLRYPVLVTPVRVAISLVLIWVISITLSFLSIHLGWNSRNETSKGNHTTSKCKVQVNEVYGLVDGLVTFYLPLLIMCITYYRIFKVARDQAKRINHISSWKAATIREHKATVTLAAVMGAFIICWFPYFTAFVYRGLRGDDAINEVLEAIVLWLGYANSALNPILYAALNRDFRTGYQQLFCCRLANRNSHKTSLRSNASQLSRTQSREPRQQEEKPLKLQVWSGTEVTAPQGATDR

Chain of Acetylcholinesterase (P22303 whole entry): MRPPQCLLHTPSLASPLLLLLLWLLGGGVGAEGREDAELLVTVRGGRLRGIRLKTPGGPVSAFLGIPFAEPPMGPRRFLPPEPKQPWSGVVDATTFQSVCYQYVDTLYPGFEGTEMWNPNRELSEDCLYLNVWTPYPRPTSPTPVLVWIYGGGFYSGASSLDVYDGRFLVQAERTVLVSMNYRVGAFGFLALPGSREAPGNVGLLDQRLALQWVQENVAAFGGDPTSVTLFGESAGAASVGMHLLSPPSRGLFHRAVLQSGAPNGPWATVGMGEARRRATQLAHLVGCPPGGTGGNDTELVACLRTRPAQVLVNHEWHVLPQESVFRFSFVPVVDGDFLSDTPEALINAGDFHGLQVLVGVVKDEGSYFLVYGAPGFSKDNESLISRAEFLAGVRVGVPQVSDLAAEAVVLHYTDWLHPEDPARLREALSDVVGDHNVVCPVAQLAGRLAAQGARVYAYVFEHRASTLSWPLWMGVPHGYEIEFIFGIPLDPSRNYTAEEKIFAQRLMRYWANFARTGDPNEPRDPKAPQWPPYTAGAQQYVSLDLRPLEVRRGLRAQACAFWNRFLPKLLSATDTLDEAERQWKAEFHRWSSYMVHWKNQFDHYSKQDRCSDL

CC[C@H]1OC(=O)[C@H](C)[C@@H](O[C@H]2C[C@@](C)(OC)[C@@H](O)[C@H](C)O2)[C@H](C)[C@@H](O[C@@H]2O[C@H](C)C[C@H](N(C)C)[C@H]2O)[C@](C)(O)C[C@@H](C)CN(C)[C@H](C)[C@@H](O)[C@]1(C)O [AZITHROMYCIN]
Not Active: IC50 ([1]; sf9) | IC50 [2] | IC50 (Acetylcholinesterase) | IC50 [3] | IC50 (Cytochrome P450 2A6) | Ki (Cytochrome P450 2A6) | IC50 (Histamine H2 receptor)

CC(C)(C)c1ccc(S(=O)(=O)/C=C/C#N)cc1 [BAY-11-7085]
Not Active: IC50 ([1]; sf9) | IC50 [2] | IC50 (Acetylcholinesterase) | IC50 [3] | IC50 (Cytochrome P450 2A6) | Ki (Cytochrome P450 2A6) | IC50 (Histamine H2 receptor)

CCc1oc2ccccc2c1C(=O)c1cc(Br)c(O)c(Br)c1 [BENZBROMARONE]
Not Active: IC50 ([1]; sf9) | IC50 [2] | IC50 (Acetylcholinesterase) | IC50 [3] | IC50 (Cytochrome P450 2A6) | Ki (Cytochrome P450 2A6) | IC50 (Histamine H2 receptor)

O=c1cc(-c2ccccc2)oc2ccc3ccccc3c12 [BETA-NAPHTHOFLAVONE]
Not Active: IC50 ([1]; sf9) | IC50 [2] | IC50 (Acetylcholinesterase) | IC50 [3] | IC50 (Cytochrome P450 2A6) | Ki (Cytochrome P450 2A6) | IC50 (Histamine H2 receptor)

CS(=O)(=O)OCCCCOS(C)(=O)=O [BUSULFAN]
Not Active: IC50 ([1]; sf9) | IC50 [2] | IC50 (Acetylcholinesterase) | IC50 [3] | IC50 (Cytochrome P450 2A6) | Ki (Cytochrome P450 2A6) | IC50 (Histamine H2 receptor)

O=C(/C=C/c1ccc(O)c(O)c1)OCCc1ccccc1 [CAFFEIC ACID PHENETHYL ESTER]
Not Active: IC50 ([1]; sf9) | IC50 [2] | IC50 (Acetylcholinesterase) | IC50 [3] | IC50 (Cytochrome P450 2A6) | Ki (Cytochrome P450 2A6) | IC50 (Histamine H2 receptor)

COc1cc(CNC(=O)CCCC/C=C/C(C)C)ccc1O [CAPSAICIN]
Not Active: IC50 ([1]; sf9) | IC50 [2] | IC50 (Acetylcholinesterase) | IC50 [3] | IC50 (Cytochrome P450 2A6) | Ki (Cytochrome P450 2A6) | IC50 (Histamine H2 receptor)

NC(=O)N1c2ccccc2C=Cc2ccccc21 [CARBAMAZEPINE]
Not Active: IC50 ([1]; sf9) | IC50 [2] | IC50 (Acetylcholinesterase) | IC50 [3] | IC50 (Cytochrome P450 2A6) | Ki (Cytochrome P450 2A6) | IC50 (Histamine H2 receptor)

CCOC(=O)n1ccn(C)c1=S [CARBIMAZOLE]
Not Active: IC50 ([1]; sf9) | IC50 [2] | IC50 (Acetylcholinesterase) | IC50 [3] | IC50 (Cytochrome P450 2A6) | Ki (Cytochrome P450 2A6) | IC50 (Histamine H2 receptor)

Oc1ccccc1O [CATECHOL]
Not Active: IC50 ([1]; sf9) | IC50 [2] | IC50 (Acetylcholinesterase) | IC50 [3] | IC50 (Cytochrome P450 2A6) | Ki (Cytochrome P450 2A6) | IC50 (Histamine H2 receptor)

CO[C@@]1(NC(=O)CSCC#N)C(=O)N2C(C(=O)O)=C(CSc3nnnn3C)CS[C@@H]21 [CEFMETAZOLE]
Not Active: IC50 ([1]; sf9) | IC50 [2] | IC50 (Acetylcholinesterase) | IC50 [3] | IC50 (Cytochrome P450 2A6) | Ki (Cytochrome P450 2A6) | IC50 (Histamine H2 receptor)

CN(C(=O)CCCOc1ccc2[nH]c(=O)ccc2c1)C1CCCCC1 [CILOSTAMIDE]
Not Active: IC50 ([1]; sf9) | IC50 [2] | IC50 (Acetylcholinesterase) | IC50 [3] | IC50 (Cytochrome P450 2A6) | Ki (Cytochrome P450 2A6) | IC50 (Histamine H2 receptor)

CC(C)(Oc1ccc(C2CC2(Cl)Cl)cc1)C(=O)O (stereo not given) [CIPROFIBRATE]
Not Active: IC50 ([1]; sf9) | IC50 [2] | IC50 (Acetylcholinesterase) | IC50 [3] | IC50 (Cytochrome P450 2A6) | Ki (Cytochrome P450 2A6) | IC50 (Histamine H2 receptor)

Nc1nc(Cl)nc2c1ncn2[C@H]1C[C@H](O)[C@@H](CO)O1 [CLADRIBINE]
Not Active: IC50 ([1]; sf9) | IC50 [2] | IC50 (Acetylcholinesterase) | IC50 [3] | IC50 (Cytochrome P450 2A6) | Ki (Cytochrome P450 2A6) | IC50 (Histamine H2 receptor)

CC[C@H]1OC(=O)[C@H](C)[C@@H](O[C@H]2C[C@@](C)(OC)[C@@H](O)[C@H](C)O2)[C@H](C)[C@@H](O[C@@H]2O[C@H](C)C[C@H](N(C)C)[C@H]2O)[C@](C)(OC)C[C@@H](C)C(=O)[C@H](C)[C@@H](O)[C@]1(C)O [CLARITHROMYCIN]
Not Active: IC50 ([1]; sf9) | IC50 [2] | IC50 (Acetylcholinesterase) | IC50 [3] | IC50 (Cytochrome P450 2A6) | Ki (Cytochrome P450 2A6) | IC50 (Histamine H2 receptor)

O=C(O)c1cc(=O)c2c(OCC(O)COc3cccc4oc(C(=O)O)cc(=O)c34)cccc2o1 [CROMOLYN]
Not Active: IC50 ([1]; sf9) | IC50 [2] | IC50 (Acetylcholinesterase) | IC50 [3] | IC50 (Cytochrome P450 2A6) | Ki (Cytochrome P450 2A6) | IC50 (Histamine H2 receptor)

O=P1(N(CCCl)CCCl)NCCCO1 (stereo not given) [CYCLOPHOSPHAMIDE ANHYDROUS]
Not Active: IC50 ([1]; sf9) | IC50 [2] | IC50 (Acetylcholinesterase) | IC50 [3] | IC50 (Cytochrome P450 2A6) | Ki (Cytochrome P450 2A6) | IC50 (Histamine H2 receptor)

CC(=O)O[C@]1(C(C)=O)CC[C@H]2[C@@H]3C=C(Cl)C4=CC(=O)[C@@H]5C[C@@H]5[C@]4(C)[C@H]3CC[C@@]21C [CYPROTERONE ACETATE]
Not Active: IC50 ([1]; sf9) | IC50 [2] | IC50 (Acetylcholinesterase) | IC50 [3] | IC50 (Cytochrome P450 2A6) | Ki (Cytochrome P450 2A6) | IC50 (Histamine H2 receptor)

Nc1nc(N)nc(NC2CC2)n1 [CYROMAZINE]
Not Active: IC50 ([1]; sf9) | IC50 [2] | IC50 (Acetylcholinesterase) | IC50 [3] | IC50 (Cytochrome P450 2A6) | Ki (Cytochrome P450 2A6) | IC50 (Histamine H2 receptor)

C#C[C@]1(O)CC[C@H]2[C@@H]3CCC4=Cc5oncc5C[C@]4(C)[C@H]3CC[C@@]21C [DANAZOL]
18.3 µM: IC50 ([1]; read-out: IC50)
Not Active: IC50 [2] | IC50 (Acetylcholinesterase) | IC50 [3] | IC50 (Cytochrome P450 2A6) | Ki (Cytochrome P450 2A6) | IC50 (Histamine H2 receptor)
6.87 µM: Ki ([1]; read-out: Ki)

CCN[C@@H](C)Cc1cccc(C(F)(F)F)c1 [DEXFENFLURAMINE]
Not Active: IC50 ([1]; sf9) | IC50 [2] | IC50 (Acetylcholinesterase) | IC50 [3] | IC50 (Cytochrome P450 2A6) | Ki (Cytochrome P450 2A6) | IC50 (Histamine H2 receptor)

C[C@H](C(=O)O)c1cccc(C(=O)c2ccccc2)c1 [DEXKETOPROFEN]
Not Active: IC50 ([1]; sf9) | IC50 [2] | IC50 (Acetylcholinesterase) | IC50 [3] | IC50 (Cytochrome P450 2A6) | Ki (Cytochrome P450 2A6) | IC50 (Histamine H2 receptor)
